Test results: paper PMC7794376 (Nature Communications, 2021)
Where “and” joins values, the source holds several entries; their conditions need not be identical. Equal values may be shown once.

Target: MtbCoaBC (Mycobacterium tuberculosis, UniProt P9WNZ1)
Test: biochemical
Assay type: biochemical
Conditions: for Activity % / Inhibition %: MtbCoaBC, replicates R1-R3; for Activity % / Activity % R1 / Activity % R3: relative to average CT; for reaction rate (slope of absorbance at 360 nm versus time), replicates: IC50 MtbCoaBC MlCoA; for reaction rate (slope of absorbance at 360 nm versus time), replicates / % inhibition, replicates / % remaining activity relative to uninhibited control, replicates: three replicates; for Activity % R1 / Inhibition % R1 / Activity R1: replicate R1; for Activity % R3 / Inhibition % R3 / Activity R3: replicate R3; for Activity R1 / Activity R3: slope of absorbance at 360 nm vs time (s)
[1] = MlCoA concentration 512 (log 2.70927; unit not given)
[2] = MlCoA concentration 1024 (log 3.0103; unit not given)

Chain of MtbCoaBC (P9WNZ1 whole entry): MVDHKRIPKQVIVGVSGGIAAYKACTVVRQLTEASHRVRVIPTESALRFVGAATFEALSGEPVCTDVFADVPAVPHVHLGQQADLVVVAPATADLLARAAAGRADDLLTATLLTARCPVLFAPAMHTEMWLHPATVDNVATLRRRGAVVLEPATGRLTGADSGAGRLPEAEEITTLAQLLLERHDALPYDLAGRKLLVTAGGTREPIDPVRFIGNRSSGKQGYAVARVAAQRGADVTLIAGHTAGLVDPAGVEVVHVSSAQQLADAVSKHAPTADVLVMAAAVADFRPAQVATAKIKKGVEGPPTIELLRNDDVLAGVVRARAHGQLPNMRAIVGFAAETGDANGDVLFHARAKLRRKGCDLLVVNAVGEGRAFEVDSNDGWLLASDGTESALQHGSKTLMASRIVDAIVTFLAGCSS

CC(C)(COP(=O)(O)OP(=O)(O)OC[C@H]1O[C@@H](n2cnc3c(N)ncnc32)[C@H](O)[C@@H]1OP(=O)(O)O)[C@@H](O)C(=O)NCCC(=O)NCCSC(=O)CC(=O)O [MlCoA, malonyl-CoA]
Activity % (8 uM MlCoA): 92.1% and 91.15% and 93.21%
Inhibition % (8 uM MlCoA): 8.85% and 6.79% and 7.90%
Activity % (16 uM MlCoA): 76.14% and 76.7% and 75.8%
Inhibition % (16 uM MlCoA): 23.30% and 24.20% and 23.86%
Activity % (32 uM MlCoA): 63.4% and 64.14% and 61%
Inhibition % (32 uM MlCoA): 35.86% and 39.00% and 36.60%
Activity % (64 uM MlCoA): 43.31% and 44.56% and 41.61%
Inhibition % (64 uM MlCoA): 55.44% and 58.39% and 56.69%
Activity % (128 uM MlCoA): 23.32% and 26.33% and 20.47%
Inhibition % (128 uM MlCoA): 73.67% and 79.53% and 76.68%
Activity % (256 uM MlCoA): 12.52% and 10.98% and 14.64%
Inhibition % (256 uM MlCoA): 89.02% and 85.36% and 87.48%
IC50 (CoaB activity, […] CTP, […] PPA, 500 µM L-cysteine, average of three independent experiments ± SD, read-out: IC50 EnzChek MtbCoaBC): 48 ± 3 µM
reaction rate (slope of absorbance at 360 nm versus time), replicates [1]: 0.000003647 and 0.000000222 and 0.000004502
% inhibition, replicates [1]: 99.87 and 97.43 and 97.92
% remaining activity relative to uninhibited control, replicates [1]: 2.081 and 0.1265 and 2.569
reaction rate (slope of absorbance at 360 nm versus time), replicates [2]: 0.000003588 and 0.000000204 and 0.000003109
% inhibition, replicates [2]: 99.88 and 98.23 and 97.95
% remaining activity relative to uninhibited control, replicates [2]: 2.047 and 0.1162 and 1.774

succinyl-CoA [SucCoA]
Activity % R1 (8 uM SucCoA): 96.11%
Activity % R3 (8 uM SucCoA): 95.1%
Inhibition % R1 (8 uM SucCoA): 3.89%
Inhibition % R3 (8 uM SucCoA): 4.90%
Activity R1 (8 uM SucCoA): 0.0001648
Activity R3 (8 uM SucCoA): 0.0001631
Activity % R1 (16 uM SucCoA): 73.57%
Activity % R3 (16 uM SucCoA): 71.48%
Inhibition % R1 (16 uM SucCoA): 26.43%
Inhibition % R3 (16 uM SucCoA): 28.52%
Activity R1 (16 uM SucCoA): 0.0001261
Activity R3 (16 uM SucCoA): 0.0001226
Activity % R1 (32 uM SucCoA): 58.32%
Activity % R3 (32 uM SucCoA): 59.99%
Inhibition % R1 (32 uM SucCoA): 41.68%
Inhibition % R3 (32 uM SucCoA): 40.01%
Activity R1 (32 uM SucCoA): 0.000099995
Activity R3 (32 uM SucCoA): 0.0001029
Activity % R1 (64 uM SucCoA): 30.98%
Activity % R3 (64 uM SucCoA): 29.66%
Inhibition % R1 (64 uM SucCoA): 69.02%
Inhibition % R3 (64 uM SucCoA): 70.34%
Activity R1 (64 uM SucCoA): 0.000053122
Activity R3 (64 uM SucCoA): 0.000050860
Activity % R1 (128 uM SucCoA): 16.56%
Activity % R3 (128 uM SucCoA): 18.74%
Inhibition % R1 (128 uM SucCoA): 83.44%
Inhibition % R3 (128 uM SucCoA): 81.26%
Activity R1 (128 uM SucCoA): 0.000028403
Activity R3 (128 uM SucCoA): 0.000032131
Activity % R1 (256 uM SucCoA): 6.801%
Activity % R3 (256 uM SucCoA): 8.41%
Inhibition % R1 (256 uM SucCoA): 93.20%
Inhibition % R3 (256 uM SucCoA): 91.59%
Activity R1 (256 uM SucCoA): 0.000011661
Activity R3 (256 uM SucCoA): 0.000014421
